Results taken from patent publication US8084399B2, “Process for screening of a binding amphiphilic peptides specific for hairpin RNA” (priority 2009, dated 2011).
Where no end group is shown, it is not given here. [ ]: non-standard residue; d: D form. Orn = NCCC[C@H](N)C(=O)O; Dab = NCC[C@H](N)C(=O)O; Dap = NC[C@H](N)C(=O)O

Key:
TAR hairpin RNA = assay: Fluorescence anisotropy competition with Rev-N-rhodamine probe, binding to TAR hairpin RNA; set-up: species or system HIV; details: fluorescence anisotropy, 20° C., pH 7.4; read-out: Dissociation constant, TAR
Procedure: (§1) Binding force to each target hairpin RNA (IRES, RRE, TAR and 16S A-site) was measured by fluorescence polarization using alanine scanned peptide library (1b-1h).
(§2) Particularly, […] of each target RNA was prepared at the concentration of 10 mM, which stood at 65° C. for 10 minutes and then cooled down slowly at room temperature, leading to folding. The amphiphilic peptide was prepared respectively at the concentration of […], which were maintained at 0° C. As a probe, rev peptide labeled with rhodamine (Rev-N-rhodamine) emitting […] fluorescence was prepared at the concentration of 10 mM. Buffer was composed of 140 mM NaCl, 5 mM KCl, 1 mM MgCl2, and 20 mM HEPES (N-2-Hydroxyethylpiperazine-N′-2-Ethanesulfonic Acid, pH 7.4). Fluorescence Anisotropy was measured using AMINCO-Bowman Series Luminescence Spectrometer at 20° C. Ten nM of the probe was added in […] of buffer, to which target RNA was added to induce interaction between the probe and the target RNA. At that time, anisotropy value increased. Then, the synthesized peptide competing with the probe for binding site was added thereto with increasing the concentration slowly. Changes of fluorescence polarization were measured until fluorescence polarization reached as low as the beginning. Considering the concentration and amount of the peptide added, binding force to target RNA was calculated. That is, the binding strength between target RNA and peptide was determined according to the following KaleidaGraph. [Peptide]=Kd(Amax−A)/[Kd(A−A0)+1]×[RNA]−Kd(A−A0)^2[Probe]0/(Amax−A)(Amax−A0)
(§3) Herein, [Peptide] indicates the concentration of peptide, [RNA] indicates the concentration of target RNA, and [Probe]0 indicates the concentration of probe. A is the value of fluorescence anisotropy of sample, Amax is the value of totally bound tracer, and A0 is the value of totally free tracer.

[1] = Circular dichroism (CD), percentage of alpha-helix; type: physicochemical; details: CD at 20° C., condition not given; for Alpha-helical rate (%), second value of pair: value after the slash; for Alpha-helical rate (%), first value of pair: value before the slash
Procedure: To investigate alpha-helix of the amphiphilic peptide (1a-1h), circular dichroism (CD) was performed. Particularly, CD was measured at 20° C. by using JASCO model J715 spectropolarimeter. Scanning was performed at 190-250 nm three times (bandwidth: 1 nm, datapitch: 0.5 nm, speed: 100 nm/min), which were averaged to obtain CD data. Spectrum was corrected by measuring background spectrum. CD signal was recorded after modulating thereof with mean residue ellipticity [Q]. Percentage (%) of alpha-helix(fn) was calculated by the following formula. [Q]=Qobs[MRW/(10lc)]
MRW=mean residue weight (dividing molecular weight by the number of peptide bond, l=pathway length (cm), c=concentration (mg/mL). fn=([Q]222−[Q]coil)/([Q]helix−[Q]coil) [Q]helix=−40,000[…]+100t [Q]coil=640−45t
[Q]222=mean residue ellipticity at 222 nm (deg cm2 mol-1), [Q]helix=ellipticity of peptide having complete helical structure, [Q]coil=ellipticity of peptide having complete random coil structure, n=number of amino acid, t=° C.

16S ribosomal RNA A-site = assay: Fluorescence anisotropy competition with Rev-N-rhodamine probe, binding to 16S A-site; details: 20° C., pH 7.4, read-out: Dissociation constant, 16S A-site
Procedure: as §1, §2, §3

RRE hairpin RNA = assay: Fluorescence anisotropy competition with Rev-N-rhodamine probe, binding to RRE hairpin RNA; set-up: species or system HIV; details: 20° C., pH 7.4, read-out: Dissociation constant, RRE
Procedure: as §1, §2, §3

IRES domain IV hairpin = assay: Fluorescence anisotropy competition with Rev-N-rhodamine probe, binding to IRES hairpin; set-up: species or system HCV; details: for differentiation coefficient (IRES): (mean Kd to other hairpin RNA)/(Kd to one hairpin RNA); for Kd: fluorescence anisotropy, 20° C., pH 7.4, read-out: Dissociation constant, IRES; for binding strength to IRES, in words: compared with the original peptide
Procedure: as §1, §2, §3

## LKKLLDabLLOrnKLLDapLAG (LKKLL[Dab]LL[Orn]KLL[Dap]LAG-NH2; N-terminus assumed; SMILES CC(C)C[C@H](NC(=O)[C@H](CN)NC(=O)[C@H](CC(C)C)NC(=O)[C@H](CC(C)C)NC(=O)[C@H](CCCCN)NC(=O)[C@H](CCCN)NC(=O)[C@H](CC(C)C)NC(=O)[C@H](CC(C)C)NC(=O)[C@H](CCN)NC(=O)[C@H](CC(C)C)NC(=O)[C@H](CC(C)C)NC(=O)[C@H](CCCCN)NC(=O)[C@H](CCCCN)NC(=O)[C@@H](N)CC(C)C)C(=O)N[C@@H](C)C(=O)NCC(N)=O) [2m, second generation peptide, hydrophilic face modified]
TAR hairpin RNA
  Kd: 31 nM
[1]
  Alpha-helical rate (%), second value of pair: 69%
  Alpha-helical rate (%), first value of pair: 49%
16S ribosomal RNA A-site
  Kd: 13 nM
RRE hairpin RNA
  Kd: 19 nM
IRES domain IV hairpin
  differentiation coefficient (IRES): 4.9
  Kd: 4.3 nM

## LKKLLKLLKALLKLKG [1f, alanine scanned first generation peptide]
TAR hairpin RNA
  Kd: 25 nM
[1]
  Alpha-helical rate (%), second value of pair: 45%
  Alpha-helical rate (%), first value of pair: 17%
16S ribosomal RNA A-site
  Kd: 64 nM
RRE hairpin RNA
  Kd: 92 nM
IRES domain IV hairpin
  differentiation coefficient (IRES): 1.8
  Kd: 33 nM

## WKKLLKLLKKLLKLAG [2n, tryptophan scanned second generation peptide]
TAR hairpin RNA
  Kd: 2 nM
[1]
  Alpha-helical rate (%), second value of pair: 65%
  Alpha-helical rate (%), first value of pair: 48%
16S ribosomal RNA A-site
  Kd: 0.76 nM
RRE hairpin RNA
  Kd: 2.5 nM
IRES domain IV hairpin
  differentiation coefficient (IRES): 2.4
  binding strength to IRES, in words: significantly increased
  Kd: 0.74 nM

## LKKLLKLLOrnKLLKLAG (LKKLLKLL[Orn]KLLKLAG-NH2; N-terminus assumed; SMILES CC(C)C[C@H](NC(=O)[C@H](CCCCN)NC(=O)[C@H](CC(C)C)NC(=O)[C@H](CC(C)C)NC(=O)[C@H](CCCCN)NC(=O)[C@H](CCCN)NC(=O)[C@H](CC(C)C)NC(=O)[C@H](CC(C)C)NC(=O)[C@H](CCCCN)NC(=O)[C@H](CC(C)C)NC(=O)[C@H](CC(C)C)NC(=O)[C@H](CCCCN)NC(=O)[C@H](CCCCN)NC(=O)[C@@H](N)CC(C)C)C(=O)N[C@@H](C)C(=O)NCC(N)=O) [2d, second generation peptide, hydrophilic face modified]
TAR hairpin RNA
  Kd: 9.8 nM
[1]
  Alpha-helical rate (%), second value of pair: 57%
  Alpha-helical rate (%), first value of pair: 28%
16S ribosomal RNA A-site
  Kd: 18 nM
RRE hairpin RNA
  Kd: 7.6 nM
IRES domain IV hairpin
  differentiation coefficient (IRES): 8.7
  Kd: 1.3 nM

## LKKLLKLLAKLLKLKG [1e, alanine scanned first generation peptide]
TAR hairpin RNA
  Kd: 74 nM
[1]
  Alpha-helical rate (%), second value of pair: 43%
  Alpha-helical rate (%), first value of pair: 12%
16S ribosomal RNA A-site
  Kd: 180 nM
RRE hairpin RNA
  Kd: 130 nM
IRES domain IV hairpin
  differentiation coefficient (IRES): 1.1
  binding strength to IRES, in words: reduced binding strength
  Kd: 120 nM

## LKKLLKLLKKLLDapLAG (LKKLLKLLKKLL[Dap]LAG-NH2; N-terminus assumed; SMILES CC(C)C[C@H](NC(=O)[C@H](CN)NC(=O)[C@H](CC(C)C)NC(=O)[C@H](CC(C)C)NC(=O)[C@H](CCCCN)NC(=O)[C@H](CCCCN)NC(=O)[C@H](CC(C)C)NC(=O)[C@H](CC(C)C)NC(=O)[C@H](CCCCN)NC(=O)[C@H](CC(C)C)NC(=O)[C@H](CC(C)C)NC(=O)[C@H](CCCCN)NC(=O)[C@H](CCCCN)NC(=O)[C@@H](N)CC(C)C)C(=O)N[C@@H](C)C(=O)NCC(N)=O) [2i, second generation peptide, hydrophilic face modified]
TAR hairpin RNA
  Kd: 8.4 nM
[1]
  Alpha-helical rate (%), second value of pair: 54%
  Alpha-helical rate (%), first value of pair: 39%
16S ribosomal RNA A-site
  Kd: 20 nM
RRE hairpin RNA
  Kd: 23 nM
IRES domain IV hairpin
  differentiation coefficient (IRES): 12
  Kd: 1.4 nM

## LKALLKLLKKLLKLKG [1c, alanine scanned first generation peptide]
TAR hairpin RNA
  Kd: 87 nM
[1]
  Alpha-helical rate (%), second value of pair: 42%
  Alpha-helical rate (%), first value of pair: 10%
16S ribosomal RNA A-site
  Kd: 92 nM
RRE hairpin RNA
  Kd: 56 nM
IRES domain IV hairpin
  differentiation coefficient (IRES): 1.3
  Kd: 62 nM

## LKKLLKLLKKLWKLAG [2t, tryptophan scanned second generation peptide]
TAR hairpin RNA
  Kd: 10 nM
[1]
  Alpha-helical rate (%), second value of pair: 58%
  Alpha-helical rate (%), first value of pair: 12%
16S ribosomal RNA A-site
  Kd: 17 nM
RRE hairpin RNA
  Kd: 13 nM
IRES domain IV hairpin
  differentiation coefficient (IRES): 5.9
  Kd: 2.3 nM

## LKKLLKLLKKLLALKG [1g, alanine scanned first generation peptide]
TAR hairpin RNA
  Kd: 39 nM
[1]
  Alpha-helical rate (%), second value of pair: 44%
  Alpha-helical rate (%), first value of pair: 8%
16S ribosomal RNA A-site
  Kd: 200 nM
RRE hairpin RNA
  Kd: 90 nM
IRES domain IV hairpin
  differentiation coefficient (IRES): 0.47
  binding strength to IRES, in words: reduced binding strength
  Kd: 210 nM

## LKKLLKWLKKLLDapLAG (LKKLLKWLKKLL[Dap]LAG-NH2; N-terminus assumed; SMILES CC(C)C[C@H](NC(=O)[C@H](CN)NC(=O)[C@H](CC(C)C)NC(=O)[C@H](CC(C)C)NC(=O)[C@H](CCCCN)NC(=O)[C@H](CCCCN)NC(=O)[C@H](CC(C)C)NC(=O)[C@H](Cc1c[nH]c2ccccc12)NC(=O)[C@H](CCCCN)NC(=O)[C@H](CC(C)C)NC(=O)[C@H](CC(C)C)NC(=O)[C@H](CCCCN)NC(=O)[C@H](CCCCN)NC(=O)[C@@H](N)CC(C)C)C(=O)N[C@@H](C)C(=O)NCC(N)=O) [3c, third generation peptide, both faces modified]
TAR hairpin RNA
  Kd: 8.3 nM
[1]
  Alpha-helical rate (%), second value of pair: 36%
  Alpha-helical rate (%), first value of pair: 29%
16S ribosomal RNA A-site
  Kd: 21 nM
RRE hairpin RNA
  Kd: 9.7 nM
IRES domain IV hairpin
  differentiation coefficient (IRES): 17
  Kd: 0.75 nM

## LKKLLKLLKKLLKLKG [1a, original amphiphilic 16-mer peptide]
TAR hairpin RNA
  Kd: 66 nM
[1]
  Alpha-helical rate (%), second value of pair: 57%
  Alpha-helical rate (%), first value of pair: 26%
16S ribosomal RNA A-site
  Kd: 100 nM
RRE hairpin RNA
  Kd: 22 nM
IRES domain IV hairpin
  differentiation coefficient (IRES): 1.4
  Kd: 45 nM

## LKKLLDabWLKKLLKLAG (LKKLL[Dab]WLKKLLKLAG-NH2; N-terminus assumed; SMILES CC(C)C[C@H](NC(=O)[C@H](CCCCN)NC(=O)[C@H](CC(C)C)NC(=O)[C@H](CC(C)C)NC(=O)[C@H](CCCCN)NC(=O)[C@H](CCCCN)NC(=O)[C@H](CC(C)C)NC(=O)[C@H](Cc1c[nH]c2ccccc12)NC(=O)[C@H](CCN)NC(=O)[C@H](CC(C)C)NC(=O)[C@H](CC(C)C)NC(=O)[C@H](CCCCN)NC(=O)[C@H](CCCCN)NC(=O)[C@@H](N)CC(C)C)C(=O)N[C@@H](C)C(=O)NCC(N)=O) [3a, third generation peptide, both faces modified]
TAR hairpin RNA
  Kd: 19 nM
[1]
  Alpha-helical rate (%), second value of pair: 55%
  Alpha-helical rate (%), first value of pair: 29%
16S ribosomal RNA A-site
  Kd: 13 nM
RRE hairpin RNA
  Kd: 22 nM
IRES domain IV hairpin
  differentiation coefficient (IRES): 10
  Kd: 1.8 nM

## LKKLLKLWKKLLKLAG [2r, tryptophan scanned second generation peptide]
TAR hairpin RNA
  Kd: 82 nM
[1]
  Alpha-helical rate (%), second value of pair: 59%
  Alpha-helical rate (%), first value of pair: 14%
16S ribosomal RNA A-site
  Kd: 65 nM
RRE hairpin RNA
  Kd: 37 nM
IRES domain IV hairpin
  differentiation coefficient (IRES): 0.75
  Kd: 92 nM
